The text below walks through data of publication PMC10536132, “Arginine Gemini-Based Surfactants for Antimicrobial and Antibiofilm Applications: Molecular Interactions, Skin-Related Anti-Enzymatic Activity and Cytotoxicity” (Molecules, 2023).

Marks after values point to notes of the source that are not given here.

Details of series [1]: method as in doi:10.1021/la981295l. To be noted: cited from earlier work.
For series [2], the system named is methicillin-resistant Staphylococcus aureus (MRSA) ATCC 43300 biofilm. Briefly: Biofilm eradication, crystal violet. Type of series: cell-based. To be noted: at 32 μg/mL. On the procedure: (§1) The ability of these geminis to disperse and eradicate biofilms once formed on the propylene surfaces of the microtiter plates was evaluated using the same bacterial strains. […] The susceptibility of both biofilms against the tested surfactants was similar. At a low concentration of 32 μg/mL, C3(CA)2 and C3(LA)2 were able to eradicate around 60–70% of preformed biofilm; however, at this concentration, the […] hydrophobic compound, C3(OA)2, eradicated less than 30% of biofilm. At high concentrations, the eradication percentage is similar for all alkyl chains. […] In this case, at low concentrations, there is not a clear dependence between the antibiofilm properties and the spacer; however, at a high concentration, the best effectivity was obtained for the longer spacer chains.
(§2) Antibiofilm activity was assessed against biofilm-producing strains of methicillin-resistant Staphylococcus aureus (MRSA) ATCC 43300 and Pseudomonas aeruginosa PAO1. Biofilm inhibition and eradication capacities of the gemini surfactants were evaluated against adherent bacterial biofilms grown in 96-well microtiter plates. Bacteria were grown overnight in tryptic soy agar at 37 °C for 24 h. The bacteria were suspended in lysogeny broth with glucose (1%) at 1.5 × 10^8 CFU/mL.
(§3) Biofilm eradication procedure: For mature biofilm formation, 200 μL of the diluted bacterial suspension was added to each well in a 96-well microplate and incubated at 37 °C for 24 h. The wells were gently rinsed with phosphate-buffered saline (PBS) and 200 μL of the corresponding gemini surfactant solution was added to each well and incubated again at 37 °C for 24 h. Two-fold serial dilutions of the gemini surfactant were used (4–128 μg/mL). After the plates were air dried, the biofilms were stained with 50 μL of 0.1 of % crystal violet for 25 min. The plates were rinsed with water and then 150 μL of 96% ethanol containing 10% acetic acid was added to all 96-well plates to dissolve the remaining crystal violet-stained biofilm. The absorbance value was recorded at 570 nm. Each assay was conducted at least three times and the results were averaged.

The subject of series [3] is Pseudomonas aeruginosa PAO1 biofilm. Put plainly: Biofilm eradication, crystal violet. Type of series: cell-based. To be noted: P. aeruginosa PAO1, at 32 μg/mL. How it is done: as §1, §2, §3
Series [4] deals with squamous cell carcinoma (A431). Briefly: Cell viability, NRU assay. The series is classed as cell-based. To be noted: A431, surfactant in solution at 35.6 µg/mL, 24 h. On the procedure:
The immortal human keratinocyte (HaCaT) and the squamous cell carcinoma (A431) were obtained from Celltec, University of Barcelona. The cells were grown in DMEM medium (4.5 g/L glucose) supplemented with 10% (v/v) FBS, 2 mM L-glutamine, 100 U/mL of penicillin and 100 μg/mL of streptomycin at 37 °C under 5% CO2. Cells were routinely cultured in 75 cm^2 culture flasks and were trypsinized using trypsin-EDTA when reached approximately 80% of confluence.
HaCaT cells (1 × 10^5 cells/mL) and A431 cells (5 × 10^4 cells/mL) were grown at the defined densities into the central 60 wells of a 96-well microplate. Cells were incubated for 24 h under 5% CO2 at 37 °C. The medium was then removed and the cells were incubated with the surfactants (100 μL), previously diluted 1:1 (v/v), reaching a concentration of […] in DMEM medium supplemented with 5% FBS using two different colorimetric methods for quantification, as follows.
The accumulation of the neutral red dye in the lysosomes of viable, undamaged cells constitutes the basis of the neutral red uptake (NRU) assay. After the cells were incubated for 24 h with the corresponding systems at 35.6 µg/mL, the medium was removed and the surfactants´ solutions were incubated for 3 h with the NRU dye solution (50 μg/mL) dissolved in the medium without FBS and phenol red (Lonza). Cells were then washed with sterile PBS, followed by the addition of 100 μL of a solution containing 50% ethanol absolute and 1% acetic acid in distilled water to extract the non-adhered dye. The microplates were then stirred for 5 min at 25 °C to promote the dissolution. Finally, the absorbance of the resulting solutions was measured at λ = 550 nm using a Bio-Rad 550 microplate reader (Hercules, CA, USA).

Details of series [5]: method as in doi:10.1021/la981295l. The following applies: cited from earlier work. The source holds these as a separate data set.
Series [6] can be described thus: Apparent pKa by direct titration with NaOH. Type of series: physicochemical. The following applies: aqueous solution, concentration above the minimum aggregation concentration; pH at semi-equivalence point. How it is done:
In order to determine the ionization state of these gemini surfactants at the pH used to investigate their biological properties, the apparent acid pKa was determined for each of them. The pKap value has been determined by means of a direct titration with NaOH of an aqueous solution of each compound. The surfactant concentrations used were in all cases higher than the minimum aggregation concentration, thus avoiding possible deviations in the pK value due to the monomer–aggregate balance. The pKap values can be estimated from the pH at the semi-equivalence point that is reached when the molar ratio of protonated and non-protonated species is 1:1. In these conditions, we have that the pH = pKa.
The pKa value of each compound has been determined by means of a direct titration with NaOH of an aqueous solution of each compound. The pH was measured using the pH electrode Thermo Electron Corporation ORION 8103SC and the temperature was controlled by a thermostatic bath, Heto CBN 8-30. The pKa values can be estimated from the pH at the semi-equivalence point, which contains a 1:1 molar ratio of protonated and non-protonated species; at this point, pH = pKap.

For `CCCCCCCCCCCC(=O)NC(CCCNC(=N)N)C(=O)NCCCNC(=O)C(CCCNC(=N)N)NC(=O)CCCCCCCCCCC` (stereo not drawn) [C3(LA)2, Bis (N^α-lauroyl arginine 1,3-propane) diamide], the “CMC (mM) Surface Tension” value in series [1] is listed as 0.005 * mM. For the same compound, the γcmc in series [1] (surface tension at the cmc) is 35 * mN/m. For the same compound, the preformed biofilm eradicated in series [2] and in series [3] was 60–70% in each case. In series [4], the “cytotoxicity, in words” value is “did not cause any apparent cytotoxicity”. Further, the “CMC (mM) Conductivity” value in series [5] is 0.5 * mM. The pKap in series [6] came out at 11.4.
